# Measurements: PubChem BioAssay AID1259407 (Chemical Carcinogenesis Research Information System (CCRIS), 2018)
# The source made the active and inactive calls. How the calls were made is not given here.
# Test system: CCRIS mutagenicity, Ames/micronucleus/aberration tests
# Experiment: CCRIS mutagenicity studies
# [1] = Test System: AMES SALMONELLA TYPHIMURIUM, Strain/Indicator: TA98, Metabolic Activation: NONE, Method: STANDARD PLATE
# [2] = Test System: AMES SALMONELLA TYPHIMURIUM, Strain/Indicator: TA98, Metabolic Activation: RAT, LIVER, S-9, AROCLOR 1254, Method: STANDARD PLATE
# [3] = Test System: AMES SALMONELLA TYPHIMURIUM, Strain/Indicator: TA100, Metabolic Activation: NONE, Method: STANDARD PLATE
# [4] = Test System: AMES SALMONELLA TYPHIMURIUM, Strain/Indicator: TA100, Metabolic Activation: RAT, LIVER, S-9, AROCLOR 1254, Method: STANDARD PLATE
# [5] = Test System: AMES SALMONELLA TYPHIMURIUM, Strain/Indicator: TA1535, Metabolic Activation: NONE, Method: STANDARD PLATE
# [6] = Test System: AMES SALMONELLA TYPHIMURIUM, Strain/Indicator: TA1535, Metabolic Activation: RAT, LIVER, S-9, AROCLOR 1254, Method: STANDARD PLATE
# [7] = Test System: AMES SALMONELLA TYPHIMURIUM, Strain/Indicator: TA1537, Metabolic Activation: NONE, Method: STANDARD PLATE
# [8] = Test System: AMES SALMONELLA TYPHIMURIUM, Strain/Indicator: TA1537, Metabolic Activation: RAT, LIVER, S-9, AROCLOR 1254, Method: STANDARD PLATE
# [9] = Test System: AMES SALMONELLA TYPHIMURIUM, Strain/Indicator: TA1538, Metabolic Activation: NONE, Method: STANDARD PLATE
# [10] = Test System: AMES SALMONELLA TYPHIMURIUM, Strain/Indicator: TA1538, Metabolic Activation: RAT, LIVER, S-9, AROCLOR 1254, Method: STANDARD PLATE
smiles,measurement,setting,value
O=[N+]([O-])C1=Cc2cccc3c2c1cc1ccc2ccccc2c13,mutagenic call,[1],active; positive
same,mutagenic call,[2],inactive; negative
same,mutagenic call,[3],inactive; negative
same,mutagenic call,[4],active; positive
same,mutagenic call,[5],inactive; negative
same,mutagenic call,[6],inactive; negative
same,mutagenic call,[7],active; positive
same,mutagenic call,[8],active; positive
same,mutagenic call,[9],active; positive
same,mutagenic call,[10],active; positive
O=c1c2ccccc2[se]n1-c1ccccc1,mutagenic call,[1],inactive; negative
same,mutagenic call,"Test System: AMES SALMONELLA TYPHIMURIUM, Strain/Indicator: TA98, Metabolic Activation: RAT LIVER S-9, PHENOBARBITAL AND 5,6-BENZOFLAVONE, Method: STANDARD PLATE",inactive; negative
same,mutagenic call,[3],inactive; negative
same,mutagenic call,"Test System: AMES SALMONELLA TYPHIMURIUM, Strain/Indicator: TA100, Metabolic Activation: RAT LIVER S-9, PHENOBARBITAL AND 5,6-BENZOFLAVONE, Method: STANDARD PLATE",inactive; negative
same,mutagenic call,[5],inactive; negative
same,mutagenic call,"Test System: AMES SALMONELLA TYPHIMURIUM, Strain/Indicator: TA1535, Metabolic Activation: RAT LIVER S-9, PHENOBARBITAL AND 5,6-BENZOFLAVONE, Method: STANDARD PLATE",inactive; negative
same,mutagenic call,[7],inactive; negative
same,mutagenic call,"Test System: AMES SALMONELLA TYPHIMURIUM, Strain/Indicator: TA1537, Metabolic Activation: RAT LIVER S-9, PHENOBARBITAL AND 5,6-BENZOFLAVONE, Method: STANDARD PLATE",inactive; negative
same,mutagenic call,"Test System: E.COLI, Strain/Indicator: WP2 UVRA, Metabolic Activation: NONE, Method: STANDARD PLATE",inactive; negative
same,mutagenic call,"Test System: E.COLI, Strain/Indicator: WP2 UVRA, Metabolic Activation: RAT LIVER S-9, PHENOBARBITAL AND 5,6-BENZOFLAVONE, Method: STANDARD PLATE",inactive; negative
O=[N+]([O-])C(Br)(Br)Br,mutagenic call,"Test System: AMES SALMONELLA TYPHIMURIUM, Strain/Indicator: TA98, Metabolic Activation: NONE, Method: PREINCUBATION",inactive; negative
same,mutagenic call,"Test System: AMES SALMONELLA TYPHIMURIUM, Strain/Indicator: TA100, Metabolic Activation: HAMSTER, LIVER, S-9, AROCLOR 1254 (5%), Method: PREINCUBATION",inactive; negative
same,mutagenic call,"Test System: AMES SALMONELLA TYPHIMURIUM, Strain/Indicator: TA100, Metabolic Activation: HAMSTER, LIVER, S-9, AROCLOR 1254 (10 OR 30%), Method: PREINCUBATION",inactive; negative
same,mutagenic call,"Test System: AMES SALMONELLA TYPHIMURIUM, Strain/Indicator: TA100, Metabolic Activation: HAMSTER, LIVER, S-9, AROCLOR 1254 (30%), Method: PREINCUBATION",active; positive
same,mutagenic call,"Test System: AMES SALMONELLA TYPHIMURIUM, Strain/Indicator: TA100, Metabolic Activation: NONE, Method: PREINCUBATION",inactive; negative
same,mutagenic call,"Test System: AMES SALMONELLA TYPHIMURIUM, Strain/Indicator: TA100, Metabolic Activation: RAT, LIVER, S-9, AROCLOR 1254 (5%), Method: PREINCUBATION",inactive; negative
same,mutagenic call,"Test System: AMES SALMONELLA TYPHIMURIUM, Strain/Indicator: TA100, Metabolic Activation: RAT, LIVER, S-9, AROCLOR 1254 (10%), Method: PREINCUBATION",inactive; negative
same,mutagenic call,"Test System: AMES SALMONELLA TYPHIMURIUM, Strain/Indicator: TA1535, Metabolic Activation: RAT, LIVER, S-9, AROCLOR 1254 (5%), Method: PREINCUBATION",inactive; negative
same,mutagenic call,"Test System: Ames Salmonella typhimurium, Strain/Indicator: RSJ100, Metabolic Activation: None, Method: Standard plate",inactive; negative
same,mutagenic call,"Test System: Ames Salmonella typhimurium, Strain/Indicator: RSJ 100, Metabolic Activation: Rat, Liver, S-9, Aroclor, Method: Standard plate",inactive; negative
same,mutagenic call,"Test System: Ames Salmonella typhimurium, Strain/Indicator: RSJ100, Metabolic Activation: Rat, Liver, S-9, Aroclor, Method: Standard plate",inactive; negative
same,mutagenic call,"Test System: Ames Salmonella typhimurium, Strain/Indicator: TA98, Metabolic Activation: None, Method: Standard plate",inactive; negative
same,mutagenic call,"Test System: Ames Salmonella typhimurium, Strain/Indicator: TA98, Metabolic Activation: Rat, Liver, S-9, Aroclor, Method: Standard plate",inactive; negative
same,mutagenic call,"Test System: Ames Salmonella typhimurium, Strain/Indicator: TA100, Metabolic Activation: None, Method: Standard plate",inactive; negative
same,mutagenic call,"Test System: Ames Salmonella typhimurium, Strain/Indicator: TA100, Metabolic Activation: Rat, Liver, S-9, Aroclor, Method: Standard plate",inactive; negative
same,mutagenic call,"Test System: Ames Salmonella typhimurium, Strain/Indicator: TA104, Metabolic Activation: None, Method: Standard plate",inactive; negative
same,mutagenic call,"Test System: Ames Salmonella typhimurium, Strain/Indicator: TA104, Metabolic Activation: Rat, Liver, S-9, Aroclor, Method: Standard plate",inactive; negative
same,mutagenic call,"Test System: Ames Salmonella typhimurium, Strain/Indicator: TPT100, Metabolic Activation: None, Method: Standard plate",inactive; negative
O=[N+]([O-])C1=Cc2ccc3ccc4cccc5cc1c2c3c45,mutagenic call,[1],active; positive
same,mutagenic call,[2],active; positive
same,mutagenic call,[3],active; positive
same,mutagenic call,[4],inactive; negative
same,mutagenic call,[5],inactive; negative
same,mutagenic call,[6],inactive; negative
same,mutagenic call,[7],active; positive
same,mutagenic call,[8],active; positive
same,mutagenic call,[9],active; positive
same,mutagenic call,[10],active; positive
CC(C)(C)N(Cc1ccccc1)CC(O)c1ccc(O)c(CO)c1 (stereo not given),mutagenic call,"Test System: AMES SALMONELLA TYPHIMURIUM, Strain/Indicator: TA98(PKM101), Metabolic Activation: NONE, Method: STANDARD PLATE",inactive; negative
same,mutagenic call,"Test System: AMES SALMONELLA TYPHIMURIUM, Strain/Indicator: TA100(PKM101), Metabolic Activation: NONE, Method: STANDARD PLATE",active; positive
same,mutagenic call,[5],inactive; negative
same,mutagenic call,[9],inactive; negative
O.O.O.O.O.O.[Cl-].[Cl-].[Co+2],mutagenic call,"End Point: IN VIVO CHROMOSOMAL ABERRATIONS, Test System: BONE MARROW CELLS, Species: MOUSE, Strain/Sex: SWISS ALBINO/MALE, Route: ORAL",active; positive (structural and ploidy changes)
same,mutagenic call,"Test System: CHINESE HAMSTER V-79, Strain/Indicator: SP5 V-79 (HPRT)/6-THIOGUANINE, Metabolic Activation: NONE, Method: STANDARD PLATE",inactive; negative
same,mutagenic call,"Test System: CHINESE HAMSTER V-79, Strain/Indicator: SPD8 V-79 (HPRT)/6-THIOGUANINE, Metabolic Activation: NONE, Method: STANDARD PLATE",active; positive
